Assay results: US12522607B2, “Substituted pyrazolo[3,4-d]pyrimidines as wee-1 inhibitors” (WIGEN BIOMEDICINE TECHNOLOGY (SHANGHAI) CO., LTD., priority 2020, dated 2026)
pIC50: −log10 of the molar value.

How the values were obtained:
HT29 cells = assay: Antiproliferative activity against HT29 cells (Cell Titer-Lumi, ATP content); assay type: cell-based; conditions: Homo sapiens, HT-29, 72 after compound addition, read-out: HT-29 cells Anti-proliferative activity (IC50 for the inhibition against HT-29 cell growth)
Procedure, shortened: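 Growth inhibition IC50 derived from luminescent ATP content after 72 (units as printed) of compound exposure over a dilution gradient. Seeding density 3000 cells per well; compound added once cells had adhered overnight.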

Wee-1 kinase = target: T1, Wee-1 kinase (Homo sapiens, UniProt P30291); assay: Inhibitory activity against Wee-1 kinase (Lanthra Screen Wee-1 kinase kit, Tracer 178); assay type: binding; conditions: Wee-1 kinase 5 nM, Tracer 178 50 nM, 1 h room temperature
T1 construct: purchased Invitrogen
T1 sequence (P30291 whole entry): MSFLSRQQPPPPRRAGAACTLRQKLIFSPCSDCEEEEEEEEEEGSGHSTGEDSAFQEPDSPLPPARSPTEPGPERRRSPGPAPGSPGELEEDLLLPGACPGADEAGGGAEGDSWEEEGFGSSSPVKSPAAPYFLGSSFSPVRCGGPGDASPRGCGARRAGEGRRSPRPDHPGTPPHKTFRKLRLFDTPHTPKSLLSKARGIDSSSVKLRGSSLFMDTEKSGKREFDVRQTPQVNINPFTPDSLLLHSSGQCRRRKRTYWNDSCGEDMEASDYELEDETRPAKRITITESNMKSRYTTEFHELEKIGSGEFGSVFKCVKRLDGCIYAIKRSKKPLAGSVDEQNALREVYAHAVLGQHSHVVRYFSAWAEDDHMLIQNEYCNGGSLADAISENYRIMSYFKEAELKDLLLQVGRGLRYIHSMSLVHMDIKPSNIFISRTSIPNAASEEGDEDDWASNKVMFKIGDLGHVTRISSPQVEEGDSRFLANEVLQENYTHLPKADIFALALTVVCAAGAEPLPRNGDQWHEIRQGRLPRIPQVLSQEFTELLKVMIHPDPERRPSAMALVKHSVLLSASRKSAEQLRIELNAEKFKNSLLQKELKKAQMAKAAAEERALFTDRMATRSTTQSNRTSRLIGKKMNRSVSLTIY
Procedure, shortened: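 Compound gradient in DMSO mixed with 5 nM Wee-1, 2 nM Eu-anti-GST antibody and 50 nM Tracer 178 (all final). Read after one hour at room temperature; IC50 calculated against the DMSO solvent control.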

C=CCn1c(=O)c2cnc(Nc3ccc(N4CCN[C@@H](C)C4)c(C)c3)nc2n1-c1ccc(=O)n(C(C)C)n1 [Compound 130]
pIC50 (HT29 cells): ≥ 6.00
pIC50 (Wee-1 kinase): ≥ 7.52

C=CCn1c(=O)c2cnc(Nc3ccc(N4CCN[C@H](C)C4)cc3)nc2n1-c1ccc(=O)n(C(C)C)n1 [Compound 131]
pIC50 (HT29 cells): ≥ 6.00
pIC50 (Wee-1 kinase): ≥ 7.52

C=CCn1c(=O)c2cnc(Nc3ccc(N4CCN(C)[C@H](C)C4)cc3)nc2n1-c1ccc(=O)n(C(C)C)n1 [Compound 132]
pIC50 (HT29 cells): ≥ 6.00
pIC50 (Wee-1 kinase): ≥ 7.52

C=CCn1c(=O)c2cnc(Nc3ccc(N4CCN[C@H](C)C4)c(C)c3)nc2n1-c1ccc(=O)n(C(C)C)n1 [Compound 133]
pIC50 (HT29 cells): ≥ 6.00
pIC50 (Wee-1 kinase): ≥ 7.52

C=CCn1c(=O)c2cnc(Nc3ccc(N4CCN(C)[C@H](C)C4)c(C)c3)nc2n1-c1ccc(=O)n(C(C)C)n1 [Compound 134]
pIC50 (HT29 cells): ≥ 6.00
pIC50 (Wee-1 kinase): ≥ 7.52

C=CCn1c(=O)c2cnc(Nc3ccc(N4CC5CCC(C4)N5)cc3)nc2n1-c1ccc(=O)n(C(C)C)n1 [Compound 135]
pIC50 (HT29 cells): 5.52 to 6.00
pIC50 (Wee-1 kinase): 7.00 to 7.52

C=CCn1c(=O)c2cnc(Nc3ccc(N4CC5CCC(C4)N5C)cc3)nc2n1-c1ccc(=O)n(C(C)C)n1 [Compound 136]
pIC50 (HT29 cells): 5.52 to 6.00
pIC50 (Wee-1 kinase): 7.00 to 7.52

C=CCn1c(=O)c2cnc(Nc3ccc(N4CC5CCC(C4)N5)c(C)c3)nc2n1-c1ccc(=O)n(C(C)C)n1 [Compound 137]
pIC50 (HT29 cells): 5.52 to 6.00
pIC50 (Wee-1 kinase): ≥ 7.52

C=CCn1c(=O)c2cnc(Nc3ccc(N4CC5CCC(C4)N5C)c(C)c3)nc2n1-c1ccc(=O)n(C(C)C)n1 [Compound 138]
pIC50 (HT29 cells): 5.52 to 6.00
pIC50 (Wee-1 kinase): ≥ 7.52

C=CCn1c(=O)c2cnc(Nc3ccc(N4CCN(C5CCN(C)CC5)CC4)c(C)c3)nc2n1-c1ccc(=O)n(C(C)C)n1 [Compound 139]
pIC50 (HT29 cells): ≥ 6.00
pIC50 (Wee-1 kinase): ≥ 7.52

C=CCn1c(=O)c2cnc(Nc3ccc(N4CCN(C5CCN(C)CC5)CC4)c(F)c3)nc2n1-c1ccc(=O)n(C(C)C)n1 [Compound 140]
pIC50 (HT29 cells): ≥ 6.00
pIC50 (Wee-1 kinase): ≥ 7.52

C=CCn1c(=O)c2cnc(Nc3ccc(N4CCN(C5CCN(C)CC5)CC4)c(OC)c3)nc2n1-c1ccc(=O)n(C(C)C)n1 [Compound 141]
pIC50 (HT29 cells): ≥ 6.00
pIC50 (Wee-1 kinase): ≥ 7.52

C=CCn1c(=O)c2cnc(Nc3ccc(N4CCC(N5CCN(C)CC5)CC4)cc3)nc2n1-c1ccc(=O)n(C(C)C)n1 [Compound 142]
pIC50 (HT29 cells): ≥ 6.00
pIC50 (Wee-1 kinase): ≥ 7.52

C=CCn1c(=O)c2cnc(Nc3ccc(N4CCC(N5CCN(C)CC5)CC4)c(C)c3)nc2n1-c1ccc(=O)n(C(C)C)n1 [Compound 143]
pIC50 (HT29 cells): ≥ 6.00
pIC50 (Wee-1 kinase): ≥ 7.52

C=CCn1c(=O)c2cnc(Nc3ccc(N4CCC(N5CCN(C)CC5)CC4)c(OC)c3)nc2n1-c1ccc(=O)n(C(C)C)n1 [Compound 144]
pIC50 (HT29 cells): ≥ 6.00
pIC50 (Wee-1 kinase): ≥ 7.52

C=CCn1c(=O)c2cnc(Nc3ccc(N4CCC(N5CCCCC5)CC4)cc3)nc2n1-c1ccc(=O)n(C(C)C)n1 [Compound 145]
pIC50 (HT29 cells): ≥ 6.00
pIC50 (Wee-1 kinase): ≥ 7.52

C=CCn1c(=O)c2cnc(Nc3ccc(N4CCC(N5CCCCC5)CC4)c(C)c3)nc2n1-c1ccc(=O)n(C(C)C)n1 [Compound 146]
pIC50 (HT29 cells): ≥ 6.00
pIC50 (Wee-1 kinase): ≥ 7.52

C=CCn1c(=O)c2cnc(Nc3ccc(N4CCC(N5CCCCC5)CC4)c(OC)c3)nc2n1-c1ccc(=O)n(C(C)C)n1 [Compound 147]
pIC50 (HT29 cells): ≥ 6.00
pIC50 (Wee-1 kinase): ≥ 7.52

C=CCn1c(=O)c2cnc(Nc3ccc(N4CCC(N5CCOCC5)CC4)cc3)nc2n1-c1ccc(=O)n(C(C)C)n1 [Compound 148]
pIC50 (HT29 cells): ≥ 6.00
pIC50 (Wee-1 kinase): ≥ 7.52

C=CCn1c(=O)c2cnc(Nc3ccc(N4CCC(N5CCOCC5)CC4)c(C)c3)nc2n1-c1ccc(=O)n(C(C)C)n1 [Compound 149]
pIC50 (HT29 cells): ≥ 6.00
pIC50 (Wee-1 kinase): ≥ 7.52

C=CCn1c(=O)c2cnc(Nc3ccc(N4CCC(N5CCOCC5)CC4)c(OC)c3)nc2n1-c1ccc(=O)n(C(C)C)n1 [Compound 150]
pIC50 (HT29 cells): ≥ 6.00
pIC50 (Wee-1 kinase): ≥ 7.52

C=CCn1c(=O)c2cnc(Nc3ccc(N4CCC(N5CCC(F)(F)CC5)CC4)cc3)nc2n1-c1ccc(=O)n(C(C)C)n1 [Compound 151]
pIC50 (HT29 cells): ≥ 6.00
pIC50 (Wee-1 kinase): ≥ 7.52
